In article PMC6724197 (Journal of chemical ecology, 2018):

Columns and labels:
[1] = test system: mountain cottontails (Sylvilagus nuttallii); assay: Two-choice feeding trial: single monoterpene diet vs monoterpene mixture diet; assay type: in vivo
[2] = test system: digestive enzyme; details: in a generalist more than in a specialist avian folivore; ref Kohl et al. 2015; cited from earlier work
[3] = test system: pygmy rabbits (Brachylagus idahoensis); assay: Two-choice feeding trial: single monoterpene diet vs monoterpene mixture diet; assay type: in vivo; details: for percentage of single monoterpene in the diet relative to monoterpene mixture: pygmy rabbits

SMILES | amount of single monoterpene diet consumed relative to monoterpene mixture [1] | effect on digestive enzyme activity [2] | proportion consumed by pygmy rabbits relative to cottontails ([3]; pygmy rabbits vs mountain cottontails) | percentage of single monoterpene in the diet relative to monoterpene mixture [3] | amount of monoterpene mixture consumed relative to single monoterpene diet [1]
C=C1C2CCC(C2)C1(C)C (centres unmarked) [camphene] | more than five times |  |  |  | 
CC12CCC(CC1=O)C2(C)C (centres unmarked) [camphor] |  | reduced digestive enzyme activity | twice | twice | twice
C=C1CCC2CC1C2(C)C (stereo not drawn) [β-pinene] |  |  |  |  | three times
CC12CCC(CC1)C(C)(C)O2 [1,8-cineole] | 24 times |  |  | twice | 
